This is an account of results in ChEMBL document CHEMBL4715692, “Design, synthesis and activity evaluation of novel peptide fusion inhibitors targeting HIV-1 gp41” (Bioorg Med Chem, 2016).

A short description of test [1]: Inhibition of gp41 in HIV1 3B infected in human HeLa-MAGI-CCR5 cells harboring reporter gene comprising HIV1 LTR in the upstream and lacZ gene of Escherichia coli in the downstream assessed as inhibition of cell-cell fusion by optical microscopy analysis. Format: cell-based. The conditions noted are these: Human immunodeficiency virus 1, 3B. For orientation: A reporter such as luciferase makes a cellular process visible.

For test [2], the system named is Human immunodeficiency virus 1. Briefly: Binding affinity to gp41 NHR helix in HIV1 assessed as inhibition of gp41 6-helix conformation incubated for 1 hr by native PAGE analysis.
In test [3] the test system is Human immunodeficiency virus 1. Briefly: Binding affinity to gp41 NHR helix in HIV1 assessed as inhibition of gp41 6-helix conformation incubated for 1 hr by SDS-PAGE analysis.
In test [4] the test system is Human immunodeficiency virus 1. Briefly: Binding affinity to gp41 NHR helix in HIV1 assessed as interaction between compound-gp41 5-helix causing band deviation incubated for 1 hr by native PAGE analysis.
For test [5], the system named is Human immunodeficiency virus 1. Description: Binding affinity to gp41 NHR helix in HIV1 assessed as interaction between compound-gp41 5-helix causing band deviation incubated for 1 hr by SDS-PAGE analysis.

The source made the active and inactive calls. No cut-off for these calls is given here. Where a SMILES comes first, the peptide text is derived from it. The star is where a group is joined. X1 = CCCCCCCCCCCCCCC(=O)O*

As a reminder, the IC50 is the midpoint of a concentration-inhibition curve.

With `CC[C@H](C)[C@H](NC(=O)[C@H](CC(C)C)NC(=O)[C@H](CCC(=O)O)NC(=O)[C@H](CCC(=O)O)NC(=O)[C@@H](NC(=O)[C@H](CCCCN)NC(=O)[C@H](CCCCN)NC(=O)[C@@H](NC(=O)[C@H](Cc1ccc(O)cc1)NC(=O)[C@H](CCCNC(=N)N)NC(=O)[C@H](CCC(=O)O)NC(=O)[C@@H](NC(=O)[C@H](CCC(=O)O)NC(=O)[C@H](CC(=O)O)NC(=O)[C@H](CCCNC(=N)N)NC(=O)[C@H](Cc1c[nH]c2ccccc12)NC(=O)[C@H](CC(=O)O)NC(=O)[C@H](CS)NC(=O)[C@H](Cc1c[nH]c2ccccc12)NC(=O)[C@@H](NC(=O)[C@@H](N)CCSC)[C@@H](C)O)[C@@H](C)CC)[C@@H](C)O)[C@@H](C)CC)C(=O)N[C@@H](CCCNC(=N)N)C(=O)N[C@@H](C)C(=O)N[C@@H](C)C(=O)N[C@@H](CCC(N)=O)C(=O)N[C@@H](CCC(=O)O)C(=O)N[C@@H](CC(C)C)C(=O)N[C@@H](CCC(N)=O)C(=O)N[C@@H](CCC(=O)O)C(=O)N[C@@H](CCCCN)C(=O)N[C@@H](CC(N)=O)C(=O)N[C@@H](CCC(=O)O)C(=O)N[C@@H](C)C(=O)N[C@@H](C)C(=O)N[C@@H](CC(C)C)C(=O)N[C@@H](CCCCN)C(=O)N[C@@H](CCC(=O)O)C(=O)N[C@@H](CC(C)C)C(=O)O`, in test [1], the IC50 worked out at 159 nM.

Turning to `CC[C@H](C)[C@H](NC(=O)[C@H](CC(C)C)NC(=O)[C@H](CCC(=O)O)NC(=O)[C@H](CCC(=O)O)NC(=O)[C@@H](NC(=O)[C@H](CCCCN)NC(=O)[C@@H](CCCCN)NC(=O)[C@@H](NC(=O)[C@H](Cc1ccc(O)cc1)NC(=O)[C@H](CCCNC(=N)N)NC(=O)[C@H](CCC(=O)O)NC(=O)[C@@H](NC(=O)[C@H](CCC(=O)O)NC(=O)[C@H](CC(=O)O)NC(=O)[C@H](CCCNC(=N)N)NC(=O)[C@H](Cc1c[nH]c2ccccc12)NC(=O)[C@H](CC(=O)O)NC(=O)[C@H](CS)NC(=O)[C@H](Cc1c[nH]c2ccccc12)NC(=O)[C@@H](NC(=O)[C@@H](N)CCSC)[C@@H](C)O)[C@@H](C)CC)[C@@H](C)O)[C@@H](C)CC)C(=O)N[C@@H](CCCNC(=N)N)C(=O)N[C@@H](C)C(=O)N[C@@H](C)C(=O)N[C@@H](CCC(N)=O)C(=O)N[C@@H](CCC(=O)O)C(=O)N[C@@H](CC(C)C)C(=O)N[C@@H](CCC(N)=O)C(=O)N[C@@H](CCC(=O)O)C(=O)N[C@@H](CCCCN)C(=O)N[C@@H](CC(N)=O)C(=O)N[C@@H](CCC(=O)O)C(=O)N[C@@H](C)C(=O)N[C@@H](C)C(=O)N[C@@H](CC(C)C)C(=O)N[C@@H](CCCCN)C(=O)N[C@@H](CCC(=O)O)C(=O)N[C@@H](CC(C)C)C(=O)O`, in test [1], the IC50 came out at 57.2 nM.

Regarding `CCCCCCCCCCCCCCC(=O)OC(=O)[C@H](CCC(N)=O)NC(=O)[C@H](CCC(N)=O)NC(=O)[C@H](CCCNC(=N)N)NC(=O)[C@H](CCC(N)=O)NC(=O)[C@H](C)NC(=O)[C@H](CC(=O)O)NC(=O)[C@H](CCCCN)NC(=O)[C@@H](NC(=O)[C@H](CC(C)C)NC(=O)[C@H](C)NC(=O)[C@H](CCC(=O)O)NC(=O)[C@@H](NC(=O)[C@H](CC(N)=O)NC(=O)[C@H](CCCNC(=N)N)NC(=O)[C@@H](NC(=O)[C@H](Cc1ccc(O)cc1)NC(=O)[C@H](CC(N)=O)NC(=O)[C@H](CCC(=O)O)NC(=O)[C@@H](NC(=O)[C@H](CCC(=O)O)NC(=O)[C@H](CCCNC(=N)N)NC(=O)[C@H](CC(=O)O)NC(=O)[C@H](Cc1c[nH]c2ccccc12)NC(=O)[C@H](CCC(N)=O)NC(=O)[C@H](CCC(=O)O)NC(=O)[C@H](Cc1c[nH]c2ccccc12)NC(=O)[C@@H](NC(=O)[C@H](CCCCN)NC(=O)[C@H](CC(N)=O)NC(=O)[C@H](CC(N)=O)NC(=O)[C@H](Cc1c[nH]c2ccccc12)NC(=O)[C@H](CCC(=O)O)NC(=O)[C@@H](N)CCC(N)=O)[C@@H](C)O)[C@@H](C)CC)C(C)C)[C@@H](C)CC)[C@@H](C)CC` (H-QEWNNKTWEQWDREIENYVRNIEALIKDAQRQQ-X1), the half-inhibitory concentration (IC50) in test [1] was determined as 222 nM. On to “H-MTWCDWRDEIERYTKKIEELIRAAQEWQEKNEAALKEL-OH”, for which, in test [1], the IC50 amounted to 53 nM. The inhibition result in test [2] and in test [3] was “Active” in each case. The outcome in test [4] and in test [5] was Active. Consider H-QEWNNKTWEQWDREIENYVRNIEALIKDAQRQQ-OH, for which the half-maximal inhibitory concentration (IC50) in test [1] is 866 nM.

On to “H-RAWVAWRNKIDRYTKKIEELIRELIRAAQELQEKNEAALKEL-OH”, for which the IC50 in test [1] worked out at 338 nM. As for “H-RAWVAWRNKIENYTRRIEELIEELIRRSQEQERRQ-OH”, the half-inhibitory concentration (IC50) in test [1] is more than 2430 nM. Still for that read-out and setting: next, “H-SIWNNMTWCDWRDEIEEYTKKIEELIKKSQEQASWNWF-OH”: 203 nM; H-VEWNARAWVAWRNRIENYAKKIEKLIRQSQEQQ-OH: 1000 nM.
